Experimental findings from patent US9957263B2, “Bromodomain inhibitors” (AbbVie Inc., priority 2013, dated 2018) are described below.

For assay [1], the system named is breast cancer cell line MX-1. As to the kind of experiment: MX-1 cell line proliferation assay, Method B. It counts as cell-based. Conditions: Homo sapiens, MX1; MX-1 cells, 384-well, 72 hours, Cell Titer Glo; read-out: Cellular proliferation: EC50 Method B. Here is the method:
The impact of compounds of the Examples on cancer cell proliferation was determined using the breast cancer cell line MX-1 (ATCC) in a 3-day proliferation assay and the data are reported in Table 1.
Method B: MX-1 cells were maintained in RPMI 1640 medium (Sigma) supplemented with 10% FBS at 37 C.° and an atmosphere of 5% CO2. For compound testing, MX-1 cells were plated in 384-well white with clear, flat bottom plates at a density of 750 cells/well in 25 μL of culture media and incubated at 370 overnight to allow cell adhesion and spreading. Ten point compound dilution series were prepared in DMSO via a 3-fold serial dilution from either […] or 1 μM stock and added directly to the appropriate wells of the MX-1 cell plate by an ECHO liquid handler (Labcyte). The final compound concentrations in the wells were 10, 3.25, 1, 0.25, 0.124, 0.040, 0.0124, 0.0031, 0.0015 and 0.0005 μM or 1, 0.33, 0.1, 0.025, 0.0124, 0.004, 0.0012, 0.0003, 0.00015, 0.00005 μM, depending on the concentration of the compound stock solution.
Luminescence readings from the Cell Titer Glo assay were normalized to the DMSO treated cells and analyzed using Accelrys Assay Explorer 3.3 software with sigmoidal curve fitting to obtain ECsos. The minimum significant ratio (MSR) was determined to evaluate assay reproducibility (Eastwood et al., (2006) J Biomol Screen, 11: 253-261). The overall MSR was determined to be 3.3 and a moving MSR (last six run MSR overtime) has averaged
(Cellular ATP, detected with luciferase, serves as a proxy for viable cell number.)

A further assay concerns the target BRD4 (BDI_K57-E168) (Homo sapiens (Human), UniProt O60885). As to the kind of experiment: TR-FRET bromodomain binding assay, BRD4 first bromodomain. Conditions: His-tagged BD1, Alexa647-labeled probe 100 nM. Put shortly: (§1)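 His-tagged BRD4 BD1 (K57-E168) or BD2 at 8 nM, 1 nM Eu-anti-His antibody and Alexa647 BET-inhibitor probe (100 nM for BDI, 30 nM for BDII) in pH 6.0 phosphate buffer, 2% DMSO, compound 50 μM-0.85 nM; 1 h at RT, TR-FRET read. IC50 by 4-parameter fit, Ki from probe Kd and concentration.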
On the technique in general: TR-FRET usually uses a lanthanide donor and a delayed reading to cut background.

The target in a further assay is BRD4 (BDII_E352-M457) (Homo sapiens (Human), UniProt O60885). As to the kind of experiment: TR-FRET bromodomain binding assay, BRD4 second bromodomain. Conditions: His-tagged BD2, Alexa647-labeled probe 30 nM. Put shortly:
as §1

The term Ki denotes the equilibrium dissociation constant of an inhibitor or competing ligand from its target. High values mean weaker binding, low ones tighter binding. In the case of `CCNC(=O)c1cc2c(-c3ccc(C(=O)N(CC#N)CC(C)c4ccccc4)cc3Oc3c(C)cccc3C)cn(C)c(=O)c2[nH]1` (stereo not drawn) [Example 167, 4-{4-[(cyanomethyl)(2-phenylpropyl)carbamoyl]-2-(2,6-dimethylphenoxy)phenyl}-N-ethyl-6-methyl-7-oxo-6,7-dihydro-1H-pyrrolo[2,3-c]pyridine-2-carboxamide], in assay [1], the EC50 is 2020 nM. The figures for the Ki at BRD4 (BDI_K57-E168) and at BRD4 (BDII_E352-M457) were above 12700 nM and 34.4 nM, respectively.
In the same order, the values of `CCNC(=O)c1cc2c(-c3ccc(C(=O)N(CC#N)c4cccc(Cl)c4)cc3Oc3c(C)cccc3C)cn(C)c(=O)c2[nH]1` [Example 168, 4-{4-[(3-chlorophenyl)(cyanomethyl)carbamoyl]-2-(2,6-dimethylphenoxy)phenyl}-N-ethyl-6-methyl-7-oxo-6,7-dihydro-1H-pyrrolo[2,3-c]pyridine-2-carboxamide] are 3060 nM, 2310 nM and 22.3 nM.
The corresponding values for `CCNC(=O)c1cc2c(-c3ccc(C(=O)N(CC#N)c4ccc(Cl)cc4)cc3Oc3c(C)cccc3C)cn(C)c(=O)c2[nH]1` [Example 169, 4-{4-[(4-chlorophenyl)(cyanomethyl)carbamoyl]-2-(2,6-dimethylphenoxy)phenyl}-N-ethyl-6-methyl-7-oxo-6,7-dihydro-1H-pyrrolo[2,3-c]pyridine-2-carboxamide] are 2170 nM, 1400 nM and 27.8 nM.
On to `CCNC(=O)c1cc2c(-c3ccc(C(=O)N(CCN(CC)CC)c4ccccc4C)cc3Oc3c(C)cccc3C)cn(C)c(=O)c2[nH]1` [Example 170, 4-[4-{[2-(diethylamino)ethyl](2-methylphenyl)carbamoyl}-2-(2,6-dimethylphenoxy)phenyl]-N-ethyl-6-methyl-7-oxo-6,7-dihydro-1H-pyrrolo[2,3-c]pyridine-2-carboxamide], for which the EC50 in assay [1] is 2170 nM. For the same compound, the figures for the Ki at BRD4 (BDI_K57-E168) and on BRD4 (BDII_E352-M457) were 863 nM and 4.22 nM, respectively.
In the same order, the values of `CCNC(=O)c1cc2c(-c3ccc(C(=O)N(CC#N)c4cccc(C(F)(F)F)c4)cc3Oc3c(C)cccc3C)cn(C)c(=O)c2[nH]1` [Example 171, 4-[4-{(cyanomethyl)[3-(trifluoromethyl)phenyl]carbamoyl}-2-(2,6-dimethylphenoxy)phenyl]-N-ethyl-6-methyl-7-oxo-6,7-dihydro-1H-pyrrolo[2,3-c]pyridine-2-carboxamide] are 6410 nM, above 12700 nM and 38.3 nM.
In the same order, the values of `CCNC(=O)c1cc2c(-c3ccc(C(=O)N(CCCN(C)C)C4CCCCC4)cc3Oc3c(C)cccc3C)cn(C)c(=O)c2[nH]1` [Example 172, 4-[4-{cyclohexyl[3-(dimethylamino)propyl]carbamoyl}-2-(2,6-dimethylphenoxy)phenyl]-N-ethyl-6-methyl-7-oxo-6,7-dihydro-1H-pyrrolo[2,3-c]pyridine-2-carboxamide] are 2540 nM, 1000 nM and 6.66 nM.
The corresponding values for `CCNC(=O)c1cc2c(-c3ccc(C(=O)N(Cc4ccccc4)Cc4ccc(Cl)cc4)cc3Oc3c(C)cccc3C)cn(C)c(=O)c2[nH]1` [Example 173, 4-{4-[benzyl(4-chlorobenzyl)carbamoyl]-2-(2,6-dimethylphenoxy)phenyl}-N-ethyl-6-methyl-7-oxo-6,7-dihydro-1H-pyrrolo[2,3-c]pyridine-2-carboxamide] are 5250 nM, above 12700 nM and 64.3 nM.
For `CCNC(=O)c1cc2c(-c3ccc(C(=O)N(CCN(C)C)c4ncccn4)cc3Oc3c(C)cccc3C)cn(C)c(=O)c2[nH]1` [Example 174, 4-[4-{[2-(dimethylamino)ethyl](pyrimidin-2-yl)carbamoyl}-2-(2,6-dimethylphenoxy)phenyl]-N-ethyl-6-methyl-7-oxo-6,7-dihydro-1H-pyrrolo[2,3-c]pyridine-2-carboxamide], the EC50 in assay [1] amounted to 1610 nM. Also, the Ki on BRD4 (BDI_K57-E168) worked out at 2300 nM; at BRD4 (BDII_E352-M457) it was 13.3 nM.
The corresponding values for `CCNC(=O)c1cc2c(-c3ccc(C(=O)N(CCC#N)c4cccc(Cl)c4)cc3Oc3c(C)cccc3C)cn(C)c(=O)c2[nH]1` [Example 175, 4-{4-[(3-chlorophenyl)(2-cyanoethyl)carbamoyl]-2-(2,6-dimethylphenoxy)phenyl}-N-ethyl-6-methyl-7-oxo-6,7-dihydro-1H-pyrrolo[2,3-c]pyridine-2-carboxamide] are 2410 nM, 2230 nM and 17.5 nM.
The corresponding values for `CCNC(=O)c1cc2c(-c3ccc(C(=O)N(CCC#N)C4CCCCC4)cc3Oc3c(C)cccc3C)cn(C)c(=O)c2[nH]1` [Example 176, 4-{4-[(2-cyanoethyl)(cyclohexyl)carbamoyl]-2-(2,6-dimethylphenoxy)phenyl}-N-ethyl-6-methyl-7-oxo-6,7-dihydro-1H-pyrrolo[2,3-c]pyridine-2-carboxamide] are 3910 nM, 927 nM and 8.65 nM.
For `CCNC(=O)c1cc2c(-c3ccc(C(=O)N(CC#N)c4ccccc4)cc3Oc3c(C)cccc3C)cn(C)c(=O)c2[nH]1` [Example 177, 4-{4-[(cyanomethyl)(phenyl)carbamoyl]-2-(2,6-dimethylphenoxy)phenyl}-N-ethyl-6-methyl-7-oxo-6,7-dihydro-1H-pyrrolo[2,3-c]pyridine-2-carboxamide], the EC50 in assay [1] turned out to be 10000 nM. The Ki is 1490 nM on BRD4 (BDI_K57-E168) and 9.21 nM at BRD4 (BDII_E352-M457).
In the same order, the values of `CCNC(=O)c1cc2c(-c3ccc(C(=O)N(CCN(CC)CC)c4ccccc4OC)cc3Oc3c(C)cccc3C)cn(C)c(=O)c2[nH]1` [Example 178, 4-[4-{[2-(diethylamino)ethyl](2-methoxyphenyl)carbamoyl}-2-(2,6-dimethylphenoxy)phenyl]-N-ethyl-6-methyl-7-oxo-6,7-dihydro-1H-pyrrolo[2,3-c]pyridine-2-carboxamide] are 10000 nM, 592 nM and 2.5 nM.
The corresponding values for `CCNC(=O)c1cc2c(-c3ccc(C(=O)N(CCN(C)C)c4ccccc4)cc3Oc3c(C)cccc3C)cn(C)c(=O)c2[nH]1` [Example 179, 4-[4-{[2-(dimethylamino)ethyl](phenyl)carbamoyl}-2-(2,6-dimethylphenoxy)phenyl]-N-ethyl-6-methyl-7-oxo-6,7-dihydro-1H-pyrrolo[2,3-c]pyridine-2-carboxamide] are 991 nM, 1580 nM and 8.24 nM.
In the same order, the values of `CCNC(=O)c1cc2c(-c3ccc(C(=O)N(CCCC(=O)OCC)c4ccccc4)cc3Oc3c(C)cccc3C)cn(C)c(=O)c2[nH]1` [Example 180, ethyl 4-[{3-(2,6-dimethylphenoxy)-4-[2-(ethylcarbamoyl)-6-methyl-7-oxo-6,7-dihydro-1H-pyrrolo[2,3-c]pyridin-4-yl]benzoyl}(phenyl)amino]butanoate] are 6060 nM, 8610 nM and 30.8 nM.
In the case of `CCNC(=O)c1cc2c(-c3ccc(C(=O)N(CCN(C)C)c4ccccn4)cc3Oc3c(C)cccc3C)cn(C)c(=O)c2[nH]1` [Example 181, 4-[4-{[2-(dimethylamino)ethyl](pyridin-2-yl)carbamoyl}-2-(2,6-dimethylphenoxy)phenyl]-N-ethyl-6-methyl-7-oxo-6,7-dihydro-1H-pyrrolo[2,3-c]pyridine-2-carboxamide], the EC50 in assay [1] is 3980 nM. Further, the Ki on BRD4 (BDI_K57-E168) was 1730 nM; on BRD4 (BDII_E352-M457) it was 9.18 nM.
